Measured values as given in publication PMC5407626 (PLoS ONE, 2017).
Where “and” joins values, the source holds several entries; their conditions need not be identical. Equal values may be shown once. Read-outs that look alike come from different tables or passages of the source.

How the values were obtained:
[1] = target: T1, recombinant mouse BCO1 (Mus musculus, UniProt Q9JJS6); assay: In vitro inhibition of recombinant mouse BCO1 activity; assay type: biochemical
T1 construct: His-tag; made in house; host or cells: E. coli
T1 sequence (Q9JJS6 1-566): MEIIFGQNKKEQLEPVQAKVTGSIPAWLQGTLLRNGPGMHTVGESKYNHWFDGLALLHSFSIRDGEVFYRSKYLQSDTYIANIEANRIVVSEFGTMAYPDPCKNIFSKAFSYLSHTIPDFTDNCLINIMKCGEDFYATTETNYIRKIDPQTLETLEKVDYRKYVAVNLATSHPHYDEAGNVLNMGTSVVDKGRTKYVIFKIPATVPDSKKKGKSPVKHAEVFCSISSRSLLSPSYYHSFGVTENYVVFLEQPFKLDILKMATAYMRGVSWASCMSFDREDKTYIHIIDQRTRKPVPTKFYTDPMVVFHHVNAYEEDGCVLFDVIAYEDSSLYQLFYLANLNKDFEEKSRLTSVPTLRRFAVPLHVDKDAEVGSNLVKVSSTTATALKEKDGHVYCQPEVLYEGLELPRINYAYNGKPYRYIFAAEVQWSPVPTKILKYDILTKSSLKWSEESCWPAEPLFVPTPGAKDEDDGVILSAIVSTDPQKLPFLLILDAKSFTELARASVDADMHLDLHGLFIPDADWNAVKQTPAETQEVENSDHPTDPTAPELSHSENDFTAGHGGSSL
Source text: Recombinant His-tag mouse BCO1 was produced in E.coli and purified using Talon CellThru (Clontech Labs, Inc., Mountain View, CA) resin as described previously. β-carotene was delivered in 1% octylthioglucoside. […] All other inhibitors were delivered in ethanol. […] The final concentration of ethanol in all samples was 1%. […] Data plotted as means±standard deviation; n = 3; […] Analysis was done in C57BL/6 wt (3 animals) and Bco1^-/- mice (13 animals).

[2] = target: T2, SCD1 (Homo sapiens, UniProt O00767); assay: SCD1 activity in ARPE-19 cells (conversion of methyl-D3 palmitic acid to methyl-D3 palmitoleic acid, LC/MS); assay type: cell-based; details: for Palmitate (AUC) / Palmitoleic Acid (AUC) / Ratio (16:0 / 16:1): 10 μM 16 h, then 50 μM D3-palmitic acid 5 h, single samples; for Mean Ratio (16:0 / 16:1) / effect on SCD1 activity: 10 μM; for Mean Ratio (16:0 / 16:1): mean of 3 samples, DMSO 8.884; for effect on SCD1 activity: ARPE-19 cells
T2 construct: endogenous in cells; host or cells: ARPE-19
T2 sequence (O00767 1-359): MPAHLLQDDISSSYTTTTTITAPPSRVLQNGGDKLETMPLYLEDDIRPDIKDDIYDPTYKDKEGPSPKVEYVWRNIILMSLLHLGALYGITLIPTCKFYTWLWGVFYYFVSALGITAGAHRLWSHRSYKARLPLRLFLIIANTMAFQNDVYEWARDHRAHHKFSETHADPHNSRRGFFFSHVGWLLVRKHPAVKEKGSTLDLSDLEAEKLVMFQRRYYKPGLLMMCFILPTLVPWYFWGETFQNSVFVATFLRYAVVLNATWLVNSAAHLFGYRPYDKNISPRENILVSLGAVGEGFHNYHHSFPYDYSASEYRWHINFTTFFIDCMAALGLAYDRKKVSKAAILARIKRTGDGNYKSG
Experimental: Compounds were dissolved in dimethyl sulfoxide (DMSO) and then added to the cell culture medium. Cells designated as control received an equal amount of dimethyl sulfoxide. After 16 h, cells were incubated with 50 μM palmitic acid triply deuterated (D3) on the methyl group (Cambridge Isotope Laboratories, Tewksbury, MA) for an additional 5 h before harvesting.
Cells were detached from culture plates using 0.05% Trypsin-EDTA, washed with PBS, and pelleted. Cell pellets were resuspended in 450 μl Cell Lysis Buffer (Cell Signaling Technology, Danvers, MA) then sonicated on ice until uniformly dispersed. An aliquot (50 μl) of the dispersed cell suspension was used for protein quantitation, and the remaining 400 μl was used for lipid extraction as follows. Samples were spiked with a small volume of pentadecanoic acid (in CHCl3) as internal standard, and were then subjected to saponification (by addition of an equal volume of 0.6 M methanolic KOH and incubating at 72°C for 15 minutes). Following saponification, samples were acidified by addition of 100 μl formic acid. The acidified mixture was extracted twice with 1 ml chloroform to recover free fatty acids. The chloroform extracts were pooled, solvent was evaporated under argon at 37°C, and the residue was resolubilized in 100 μl chloroform/methanol (1:4) for analysis by liquid chromatography mass spectrometry (LC/MS) using a modification of the procedures of Dillon et al.. The LC-MS system consisted of a 1200 Series Capillary LC (Agilent, Santa Clara, CA) coupled to a Micromass Q-Tof micro mass spectrometer (Waters Corp., Milford, MA) equipped with an electrospray ionization source. Separation of fatty acids was achieved by isocratic elution on a PLRP-S polymeric reversed-phase column (100 Å, 3 μm, 2.1 x 150 mm; Agilent) heated to 65°C. A mobile phase consisting of 25% acetonitrile:chloroform (1:1), 40% methanol, 25% water, 10% 10 mM ammonium acetate was run at a flow rate of 0.1 ml/min. The mass spectral analysis of the fatty acids was performed in the negative ion mode using the following instrument settings: capillary voltage, 1600; sample cone voltage, 40; cone gas flow, 40 L/hr; desolvation gas flow, 400 L/hr; source temperature, 80°C; desolvation temperature, 100°C. Data was then analyzed using MassLynx software v 4.1 (Waters) by extracting the ion chromatograms of the labeled palmitic and palmitoleic acid peaks and measuring peak area.
Cell lysates were analyzed by Western blotting using mouse monoclonal antibody against SCD1 (upper panel) in comparison with immunoreactivity to α-tubulin which was employed as a loading control (lower panel) and densitometry for each lane was performed and analyzed by ImageJ to provide the SCD1/α-tubulin ratio for each lane. […] Free fatty acids present in lipid extracts were analyzed by LC/MS and SCD1 activity, measured by the conversion of methyl-D3 palmitic acid to methyl-D3 palmitoleic acid, was determined. […] Lipids were extracted from two 100 mm Petri dishes and combined for mass spectrometry analysis. Data plotted as means ± standard deviation; n = 3. […] They are given here as printed results in cells, but it is uncertain whether they fall under the exclusion for gels and blots. / Panel A: the Control lane (1.00) is left out because it is not a substance.

[3] = mice, after 4 hours of treatment; cited from earlier work
[4] = target: T3, RARβ (Homo sapiens, UniProt P10826); assay: GeneBLAzer RAR-beta DA assay, agonist mode; assay type: cell-based
T3 sequence (P10826 183-417 limits assumed): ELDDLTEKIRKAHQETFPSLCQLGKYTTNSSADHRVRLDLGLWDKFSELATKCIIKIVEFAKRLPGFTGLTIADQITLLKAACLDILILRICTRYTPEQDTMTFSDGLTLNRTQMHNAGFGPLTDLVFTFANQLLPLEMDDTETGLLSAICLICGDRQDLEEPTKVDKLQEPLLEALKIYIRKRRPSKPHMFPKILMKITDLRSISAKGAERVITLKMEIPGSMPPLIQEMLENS
Experimental: The potency of agonists and antagonists was measured by GeneBLAzer RAR-beta DA Assay Kit (ThermoFisher Scientific) according to the manufacturer’s recommendations.
The phenylretinamides may have the ability to modulate the expression of proteins and induce cell apoptosis via RAR-dependent and -independent pathways. […] Human retina-derived cells in culture show differences in expression of RAR receptors. […] Clonetics HRPE primary human cells specifically express only RARβ [50].

| SMILES | effect on BCO1 activity ([1]; inhibitor 0–200 μM) | Palmitate (AUC) [2] | Palmitoleic Acid (AUC) [2] | Ratio (16:0 / 16:1) [2] | Mean Ratio (16:0 / 16:1) [2] | effect on SCD1 activity [2] | IC50 [1] | metabolite level as % of plasma levels of 4-HPR [3] | IC50 ([1]; 20 μM β-carotene, enzyme preincubated with inhibitor 10 min at 4°C, read-out: IC50 BCO1) | EC50 [4] | Palmitate (AUC) ([2]; listed as 4HPR) | Palmitoleic Acid (AUC) ([2]; listed as 4HPR) |
| --- | --- | --- | --- | --- | --- | --- | --- | --- | --- | --- | --- | --- |
| O=C(O)c1ccccc1NC(=O)N1CCC(c2ccccc2C(F)(F)F)CC1 [A1120] | does not affect BCO1 activity | 625.27 and 963.80 and 854.94 | 74.04 and 107.80 and 111.92 | 8.445 and 8.941 and 7.639 | 8.342 | no inhibitory effect on SCD1 activity at all | – | – | – | – | – | – |
| CC1=C(/C=C/C(C)=C/C=C/C(C)=C/C(=O)Nc2ccc(O)cc2)C(C)(C)CCC1=O [3-keto-HPR, 4-oxo-N-(4-hydroxyphenyl)retinamide] | – | 1476.16 and 1271.38 and 1913.30 | 17.56 and 10.07 and 19.08 | 84.064 and 126.254 and 100.278 | 103.532 | effective inhibitors of SCD1 activity | 4 µM | ~ 23% | – | – | – | – |
| COc1ccc(NC(=O)/C=C(C)/C=C/C=C(C)/C=C/C2=C(C)CCCC2(C)C)cc1 [MPR, N-[4-methoxyphenyl]retinamide] | – | 2368.01 and 2526.72 and 1327.38 | – | 8.882 and 7.657 and 8.556 | 8.365 | no inhibitory effect on SCD1 activity at all | – | – | 5 µM | 1000 nM and 1010 nM | – | – |
| CC1=C(/C=C/C(C)=C/C=C/C(C)=C/C(=O)Nc2ccc(O)cc2)C(C)(C)CCC1 [fenretinide, N-[4-hydroxyphenyl]retinamide] | – | – | – | – | – | effective inhibitors of SCD1 activity | – | – | – | 560 nM | 1258.94 and 1398.36 and 1783.91 | 12.20 and 15.08 and 14.79 |
